Measurements taken from patent US20150196531A1, “Methods and Compositions For Treating Sleep-Related Breathing Disorders” (Sunovion Pharmaceuticals Inc., priority 2007, published 2015).

Experiments:
[1] = target: norepinephrine uptake, rat reuptake transporter (synaptosomes from male Wistar rat hypothalamus) (Rattus norvegicus, UniProt Q63380); assay: Norepinephrine functional uptake assay for rat reuptake transporter (synaptosomes); type: biochemical; conditions: [3H]-norepinephrine uptake, read-out: Inhibition of monoamine uptake, Rat NE, IC50
Chain of norepinephrine uptake, rat reuptake transporter (synaptosomes from male Wistar rat hypothalamus) (Q63380 1-617): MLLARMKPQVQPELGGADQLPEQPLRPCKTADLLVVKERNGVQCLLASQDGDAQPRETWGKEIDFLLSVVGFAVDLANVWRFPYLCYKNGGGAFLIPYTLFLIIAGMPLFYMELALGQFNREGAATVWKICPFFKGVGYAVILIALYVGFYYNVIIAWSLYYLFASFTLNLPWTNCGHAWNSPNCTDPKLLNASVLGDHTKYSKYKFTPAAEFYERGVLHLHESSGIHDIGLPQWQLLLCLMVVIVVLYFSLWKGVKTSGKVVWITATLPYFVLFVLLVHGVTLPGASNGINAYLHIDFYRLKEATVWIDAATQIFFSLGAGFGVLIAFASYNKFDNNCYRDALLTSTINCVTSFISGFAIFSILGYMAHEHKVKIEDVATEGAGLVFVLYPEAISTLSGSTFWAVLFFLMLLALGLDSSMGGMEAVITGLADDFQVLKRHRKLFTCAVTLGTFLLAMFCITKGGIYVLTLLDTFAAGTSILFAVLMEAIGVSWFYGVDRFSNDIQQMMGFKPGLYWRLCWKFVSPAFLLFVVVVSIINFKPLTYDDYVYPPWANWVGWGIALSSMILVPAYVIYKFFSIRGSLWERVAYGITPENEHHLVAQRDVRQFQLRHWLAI
Description: (§1) The concentrations of radioligand employed in the assays were at or below the KM for the monoamine substrates with their cognate transporters. Compounds were tested at 5 to 10 different concentrations in duplicate in order to obtain full inhibition curves.
Quantification of norepinephrine uptake was performed using synaptosomes isolated in a 0.32 M sucrose buffer from a male Wistar rat hypothalamus. The uptake of radiolabelled norepinephrine by synaptosomes (100 μg of proteins/point) was allowed by incubating them for 20 minutes at 37° C. in presence of test compounds and [^3H]-norepinephrine (0.1 μCi/point). The experiment was performed in a deep well.
Synaptosomes and [^3H]-norepinephrine were prepared in a Krebs buffer pH 7.4 containing 25 mM NaHCO3, 11 mM glucose and 50 μM ascorbic acid. This incubation buffer was oxygenated for 5 minutes before incubation. Basal control was incubated for 20 minutes at 4° C. in order to avoid any uptake. Following this incubation, the uptake was stopped by filtration through a unifilter 96-wells GFB. Packard plate washed with Krebs buffer containing 25 mM NaHCO3 in order to eliminate the free [^3H]-norepinephrine. The radioactivity associated to the synaptosomes retained onto the unifilter corresponding to the uptake was then measured with a microplate scintillation counter (Topcount, Packard) using a scintillation fluid.

[2] = target: T1, dopamine uptake, rat reuptake transporter (synaptosomes from male Wistar rat striatum) (Rattus norvegicus, UniProt P23977); assay: Dopamine functional uptake assay for rat reuptake transporter (synaptosomes); type: biochemical; conditions: for IC50: rat synaptosomes, [3H]-dopamine uptake, read-out: Inhibition of monoamine uptake, Rat DA, IC50
T1 construct: synaptosomes isolated in a 0.32 M sucrose buffer from a male Wistar rat striatum; from tissue; host or cells: male Wistar rat striatum synaptosomes
T1 sequence (P23977 whole entry): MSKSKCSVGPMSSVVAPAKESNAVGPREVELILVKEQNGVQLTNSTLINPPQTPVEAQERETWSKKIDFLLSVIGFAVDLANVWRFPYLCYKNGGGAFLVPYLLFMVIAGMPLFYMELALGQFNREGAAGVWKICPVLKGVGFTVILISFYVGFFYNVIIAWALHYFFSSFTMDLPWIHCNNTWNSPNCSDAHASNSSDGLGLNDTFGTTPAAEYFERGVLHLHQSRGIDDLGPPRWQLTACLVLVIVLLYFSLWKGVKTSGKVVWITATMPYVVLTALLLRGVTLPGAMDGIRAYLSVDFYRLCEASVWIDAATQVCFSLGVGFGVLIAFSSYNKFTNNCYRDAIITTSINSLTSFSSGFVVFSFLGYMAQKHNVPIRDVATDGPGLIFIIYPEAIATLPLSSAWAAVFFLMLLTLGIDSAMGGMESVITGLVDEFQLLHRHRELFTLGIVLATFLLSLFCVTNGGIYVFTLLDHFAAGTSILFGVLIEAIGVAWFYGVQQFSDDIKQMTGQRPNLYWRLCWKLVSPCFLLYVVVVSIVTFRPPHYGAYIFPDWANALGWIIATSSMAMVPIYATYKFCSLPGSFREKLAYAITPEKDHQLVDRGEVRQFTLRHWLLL
Description: as §1
Quantification of dopamine uptake was performed using synaptosomes isolated in a 0.32 M sucrose buffer from a male Wistar rat striatum. The uptake of radiolabelled dopamine by synaptosomes (20 μg of proteins/point) was allowed by incubating them for 15 minutes at 37° C. in the presence of test compounds and [^3H]-dopamine (0.1 μCi/point). The experiment was performed in a deep well.
Synaptosomes and [^3H]-dopamine were prepared in a Krebs buffer pH 7.4 containing 25 mM NaHCO3, 11 mM glucose and 50 μM ascorbic acid. This incubation buffer was oxygenated for 5 minutes before incubation. Basal control was incubated for 15 minutes at 4° C. in order to avoid any uptake. Following this incubation, the uptake was stopped by filtration through a unifilter 96-wells GFB Packard plate washed with Krebs buffer containing 25 mM NaHCO3in order to eliminate free [^3H]-dopamine. The radioactivity associated to the synaptosomes retained onto the unifilter corresponding to the uptake was then measured with a microplate scintillation counter (Topcount, Packard) using a scintillation fluid.

[3] = target: recombinant human dopamine transporter expressed in CHO-K1 cells (Homo sapiens, UniProt Q01959)
Chain of recombinant human dopamine transporter expressed in CHO-K1 cells (Q01959 whole entry): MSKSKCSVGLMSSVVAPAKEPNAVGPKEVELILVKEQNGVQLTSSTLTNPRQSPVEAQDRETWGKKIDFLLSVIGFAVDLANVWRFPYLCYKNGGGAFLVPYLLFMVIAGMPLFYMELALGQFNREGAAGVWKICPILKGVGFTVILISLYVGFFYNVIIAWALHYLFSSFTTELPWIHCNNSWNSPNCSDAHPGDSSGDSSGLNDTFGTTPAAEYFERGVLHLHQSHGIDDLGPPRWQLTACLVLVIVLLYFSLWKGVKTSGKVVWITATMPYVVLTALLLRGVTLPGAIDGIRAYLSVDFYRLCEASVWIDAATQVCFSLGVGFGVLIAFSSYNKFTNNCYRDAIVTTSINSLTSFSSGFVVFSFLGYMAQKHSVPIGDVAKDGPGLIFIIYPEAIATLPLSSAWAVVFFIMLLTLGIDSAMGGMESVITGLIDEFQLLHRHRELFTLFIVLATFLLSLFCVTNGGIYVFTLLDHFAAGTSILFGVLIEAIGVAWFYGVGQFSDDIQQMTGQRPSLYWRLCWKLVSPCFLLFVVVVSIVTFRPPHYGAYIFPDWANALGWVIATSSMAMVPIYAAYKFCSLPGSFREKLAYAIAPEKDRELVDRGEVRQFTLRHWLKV
Description: as §1
Test compound and/or vehicle was preincubated with cells (4×10^5/ml) in modified Tris-HEPES buffer pH 7.1 for 20 minutes at 25° C. and 50 nM [^3H]Dopamine was then added for an additional 10 minute incubation period. A lysate was obtained from solubilized cells and the amount of tritium in the lysate was measured using a liquid scintillation counter to determine [^3H]Dopamine uptake. Reduction of [^3H]Dopamine uptake by 50 percent or more (≧50%) relative to 10 μM nomifensine indicates significant inhibitory activity.

[4] = target: 5-HT uptake, rat reuptake transporter (synaptosomes from male Wistar rat cortex) (Rattus norvegicus, UniProt P31652); conditions: at a 10 μM concentration
Chain of 5-HT uptake, rat reuptake transporter (synaptosomes from male Wistar rat cortex) (P31652 whole entry): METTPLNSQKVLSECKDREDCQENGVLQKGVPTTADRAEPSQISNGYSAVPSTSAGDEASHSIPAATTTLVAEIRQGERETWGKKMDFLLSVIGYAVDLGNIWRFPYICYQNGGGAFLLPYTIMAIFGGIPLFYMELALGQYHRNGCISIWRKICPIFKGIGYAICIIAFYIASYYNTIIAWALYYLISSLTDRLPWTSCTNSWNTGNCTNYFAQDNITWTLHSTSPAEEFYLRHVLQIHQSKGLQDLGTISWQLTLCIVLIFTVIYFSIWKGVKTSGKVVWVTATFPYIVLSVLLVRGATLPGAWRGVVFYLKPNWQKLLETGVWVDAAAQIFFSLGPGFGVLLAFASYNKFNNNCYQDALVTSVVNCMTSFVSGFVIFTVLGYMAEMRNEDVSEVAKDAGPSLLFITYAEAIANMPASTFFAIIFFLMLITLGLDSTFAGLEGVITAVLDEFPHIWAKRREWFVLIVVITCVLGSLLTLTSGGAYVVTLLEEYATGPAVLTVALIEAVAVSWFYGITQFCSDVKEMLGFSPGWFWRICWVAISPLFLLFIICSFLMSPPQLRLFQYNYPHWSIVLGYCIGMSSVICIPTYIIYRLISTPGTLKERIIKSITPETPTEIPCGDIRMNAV
Description: as §1
Quantification of 5HT uptake was performed using synaptosomes isolated in a 0.32M sucrose buffer from a male Wistar rat cortex. The uptake of radiolabelled 5-HT by synaptosomes (100 μg of proteins/point) was allowed by incubating them in a well for 15 min at 37° C. in presence of test compounds and [^3H]5-hydroxytryptamine (0.1 μCi/point).
Synaptosomes and [^3H]5-hydroxytryptamine were prepared in a Krebs buffer pH 7.4 containing 25 mM NaHCO3, 11 mM mM glucose and 50 μM ascorbic acid. This incubation buffer was oxygenated during 5 minutes before incubation. Basal control was incubated for 15 minutes at 4° C. in order to avoid any uptake. […] The radioactivity associated to the synaptosomes retained on the unifilter corresponding to the uptake was then measured with a microplate scintillation counter (Topcount, Packard) using a scintillation fluid. Nonspecific binding was measured in the presence of an excess of cold, unlabeled ligand. […]

| Structure (SMILES) | IC50 [1] | IC50 [2] | Inhibition of functional reuptake, Human DA (IC50 not given) [3] | Inhibition of functional reuptake, Rat 5-HT (IC50 not given) [4] | Inhibition of functional reuptake, Rat DA (IC50 not given) ([2]; at a 10 μM concentration) |
| --- | --- | --- | --- | --- | --- |
| CN(C)CC(c1ccc(O)cc1)C1(O)CCCCC1 (racemic) [Racemic O-desmethylvenlafaxine, O-desmethylvenlafaxine] | 1500 nM | 7500 nM | — (key: — indicates less than 50% inhibition of functional reuptake at a 10 μM concentration.) | – | – |
| CN(C)CC(c1ccc(O)cc1)C1(O)CCCCC1 (single isomer, unassigned; (-)) [(−)-O-desmethylvenlafaxine] | 430 nM | 5700 nM | – | – | – |
| CN(C)CC(c1ccc(O)cc1)C1(O)CCCCC1 (single isomer, unassigned; (+)) [(+)-O-desmethylvenlafaxine] | 1700 nM | – | — (key: — indicates less than 50% inhibition of functional reuptake at a 10 μM concentration.) | — (— indicates less than 50% inhibition of functional reuptake at a 10 μM concentration.) | — (— indicates less than 50% inhibition of functional reuptake at a 10 μM concentration.) |
